Measurements published in US11173146B2, “Selective activators of the intermediate conductance CA2+activated K+ channel KCa3.1 and their methods of use” (The Regents of the University of California, priority 2014, dated 2021).
“And” between values parts separate entries of the source, which are not always exact repeats. Equal values may be shown once. “Also recorded” adds a separate entry of the source. Read-outs that look alike come from different tables or passages of the source.

What was measured:
KCa3.1 [1] = target: T1, KCa3.1 (Homo sapiens, UniProt O15554+P0DP23); assay: Inside-out patch Ca2+ concentration-response of KCa3.1
rKCa2.2 = rKCa2.2 (UniProt P0DP23+P70604); assay: Whole-cell patch-clamp KCa2.2 activation (HEK-293)
KCa3.1−/− mice = assay: Telemetry in KCa3.1−/− mice; conditions: 100 mg/kg i.p.
KCa3.1 [2] = target: T1, KCa3.1; assay: Whole-cell patch-clamp KCa3.1 activation (QPatch, HEK-293); type: cell-based; design: host or cells: HEK-293
From the text: Cells, Cell lines and Clones. […] The cloning of hKCa2.3 (19 CAG repeats) and hKCa3.1 has been previously described (Wulff et al., 2000). The hKCa2.3 clone was later stably expressed in COS-7 cells at Aurora Biosciences Corp., San Diego, Calif. Cell lines stably expressing other mammalian ion channels were gifts from several sources: hKCa1.1 in HEK-293 cells (Andrew Tinker, University College London); hKV2.1 in HEK293 cells (James Trimmer, UC Davis); KV11.1 (HERG) in HEK-293 cells (Craig January, University of Wisconsin, Madison); hNaV1.4 in HEK-293 cells (Frank Lehmann-Horn, University of Ulm, Germany), hNaV1.5 in HEK-293 cells (Christopher Lossin, University of California Davis), and hCaV1.2 in HEK-293 cells (Franz Hofmann, Munich, Germany).
Electrophysiology. Experiments were conducted either manually with an EPC-10 amplifier (HEKA, Lambrecht/Pfalz, Germany) or on a QPatch-16 automated electrophysiology platform (Sophion Biosciences, Denmark). […] Patch pipettes were pulled from soda lime glass (micro-hematocrit tubes, Kimble Chase, Rochester, N.Y.) and had resistances of 2-3 MΩ. […] Free Ca^2+ concentrations were calculated with MaxChelator assuming a temperature of 25° C., a pH of 7.2 and an ionic strength of 160 mM. […] Na^+ aspartate Ringer was used as an external solution (in mM): 160 Na^+ aspartate, 4.5 KCl, 2 CaCl2, 1 MgCl2, 5 HEPES, pH 7.4, 290-310 mOsm. […] Reduction of both peak and tail current by the drug was determined. NaV1.7 currents were recorded with 30 ms pulses from −90 mV to −10 mV every 10 sec with a CsF-based pipette solution and normal Ringer as an external solution. CaV1.2 currents were elicited by 100-ms depolarizing pulses from −80 to 20 mV every 10 sec with a CsCl-based pipette solution and an external solution containing 30 mM BaCl2. Blockade of both Na^+ and Ca^2+ currents was determined as reduction of the current minimum.
For automated electrophysiology experiments cells were grown to ˜70% confluency, rinsed in sterile PBS containing 0.02% EDTA, and lifted with 2 mL of TrypLE™ Express (Gibco, Grand Island, N.Y.) for ˜2 min. When cells were rounded but not detached, they were dislodged by gentle tapping, suspended in DMEM, centrifuged and resuspended in 1 ml of external solution, placed into the Qfuge tube and resuspended in 150-200 μL extracellular solution after one additional spin on the QPatch. Whole-cell patch-clamp experiments were then carried out using disposable 16-channel planar patch chip plates (QPlates; patch hole diameter approximately 1 μm, resistance 2.00±0.02 MΩ). […] In order to avoid rejection of cells with large KCa3.1 currents the minimum seal resistance for whole-cell requirement was lowered to 0.001 GΩ. […] Following establishment of the whole-cell configuration, cells were held at −80 mV and KCa3.1, KCa2.1 or KCa2.2 currents elicited by a voltage protocol that held at −80 mV for 20 ms, stepped to −120 mV for 20 ms, ramped from −120 to 40 mV in 200 ms and then stepped back to −120 mV for 20 ms. This pulse protocol was applied every 10 s. […] NaV1.2 currents from N1E-115 cells, NaV1.4 and NaV1.5 currents from stably transfected HEK cells were recorded with 20 ms pulses from −90 mV to 0 mV every 10 sec with a KF-based internal solution and normal Ringer as an external solution. Current slopes (in ampere per sec) were measured using the SophionQPatch software and exported to Microsoft Excel and Origin 7.0 (OriginLab Corp. MA) for analysis. […] Data fitting to the Hill equation to obtain EC50 and IC50 values was performed with Origin 7.0. Data are expressed as mean±SD.

logP = type: physicochemical

With Cc1cc2nc(N)oc2c2ccccc12 [SKA-121, 5-Methylnaphtho[2,1-d]oxazol-2-amine] the “maximal achievable KCa3.1 current” value (KCa3.1 [1]; 1 μM SKA-121, at 1 and 10 μM Ca2+) was “increased the maximal achievable current”, the “Hill coefficient of the Ca2+ concentration-response curve” value (KCa3.1 [1]; in presence of 1 μM SKA-121) was about 3 and the EC50 (rKCa2.2) was 6800 ± 2200 nM. The “Hill coefficient nH, KCa2.2 concentration-response curve” value (rKCa2.2; FIG. 4 legend) was 1.7, the “HR” value (KCa3.1−/− mice) was “did not; also recorded: no significant effects” and the “MAP” value (KCa3.1−/− mice) was “did not; also recorded: no significant effects”. The “maximal KCa3.1 current increase” value (KCa3.1 [2]; 250 nM free Ca2+) was “roughly 30 fold”, the EC50 (KCa3.1 [2]; 250 nM free Ca2+, read-out: EC50 for KCa3.1 activation) was 109 nM and 111 nM and ~110 nM and the EC50 (KCa3.1 [2]; Appendix A, read-out: KCa3.1 EC50 (converted)) was 200 nM. For the same molecule, the “Hill coefficient nH, KCa3.1 concentration-response curve” value (KCa3.1 [2]; FIG. 4 legend) was 3.0, the “selectivity for KCa3.1 over the three KCa2 channels” value (KCa3.1 [2]; KCa2.1, KCa2.2 and KCa2.3) was 40-80 fold and the EC50 (KCa3.1 [2]; Table 1, 250 nM free Ca2+, read-out: KCa3.1 EC50 (converted)) was 109 nM. For the same molecule, the “selectivity for KCa3.1 over KCa2.3” value (KCa3.1 [2]; ratio of EC50 values) was about 40 fold and the logP (logP) was 1.79.
